Assay results from the NIST ThermoML archive (doi:10.1021/acs.jced.9b00507).
± gives the expanded uncertainty stated by the source.

Assay: xn = mol fraction of the nth substance listed
Details: 100 kPa, Liquid; for viscosity: Concentric cylinders viscometry; for mass density: Vibrating tube method

CCCCCCn1cc[n+](C)c1.O=[N+]([O-])[O-] [1-hexyl-3-methylimidazolium nitrate] + CCCCCCCCO
Details | mass density [kg/m3] | viscosity [mPa·s]
293.15 K, x1 = 0.0806 | 856.1 ± 1.3 | 15.49 ± 1.3
293.15 K, x1 = 0.1591 | 885.1 ± 1.2 | 23.39 ± 1.9
293.15 K, x1 = 0.2392 | 913.2 ± 1.2 | 34.36 ± 2.8
293.15 K, x1 = 0.3493 | 949.6 ± 1.2 | 55.85 ± 4.5
293.15 K, x1 = 0.4396 | 977.6 ± 1.2 | 83.56 ± 6.8
293.15 K, x1 = 0.5621 | 1013.2 ± 1.2 | 149.62 ± 12
293.15 K, x1 = 0.649 | 1036.9 ± 1.2 | 222.84 ± 18
293.15 K, x1 = 0.7407 | 1060.6 ± 1.3 | 331.13 ± 28
293.15 K, x1 = 0.8495 | 1087 ± 1.3 | 504.66 ± 43
293.15 K, x1 = 0.9397 | 1107.4 ± 1.4 | 677.63 ± 59
293.15 K, x1 = 1 | 1120.3 ± 1.4 | 804.17 ± 70
298.15 K, x1 = 0.0806 | 852.6 ± 1.2 | 11.3 ± 0.91
298.15 K, x1 = 0.1591 | 881.4 ± 1.2 | 15.96 ± 1.3
298.15 K, x1 = 0.2392 | 909.5 ± 1.2 | 22.23 ± 1.8
298.15 K, x1 = 0.3493 | 946 ± 1.2 | 34.83 ± 2.8
298.15 K, x1 = 0.4396 | 974 ± 1.2 | 51.05 ± 4.1
298.15 K, x1 = 0.5621 | 1009.7 ± 1.2 | 89.33 ± 7.2
298.15 K, x1 = 0.649 | 1033.6 ± 1.2 | 133.05 ± 11
298.15 K, x1 = 0.7407 | 1057.3 ± 1.3 | 205.44 ± 17
298.15 K, x1 = 0.8495 | 1083.8 ± 1.3 | 321.84 ± 27
298.15 K, x1 = 0.9397 | 1104.4 ± 1.4 | 446.63 ± 38
298.15 K, x1 = 1 | 1117.5 ± 1.4 | 545.25 ± 47
303.15 K, x1 = 0.0806 | 848.9 ± 1.2 | 8.53 ± 0.69
303.15 K, x1 = 0.1591 | 877.7 ± 1.2 | 11.46 ± 0.92
303.15 K, x1 = 0.2392 | 905.8 ± 1.2 | 15.38 ± 1.2
303.15 K, x1 = 0.3493 | 942.3 ± 1.2 | 23.23 ± 1.9
303.15 K, x1 = 0.4396 | 970.3 ± 1.2 | 33.11 ± 2.7
303.15 K, x1 = 0.5621 | 1006.1 ± 1.2 | 54.2 ± 4.4
303.15 K, x1 = 0.649 | 1030 ± 1.2 | 78.89 ± 6.4
303.15 K, x1 = 0.7407 | 1053.8 ± 1.3 | 122.74 ± 10
303.15 K, x1 = 0.8495 | 1080.4 ± 1.3 | 203.15 ± 17
303.15 K, x1 = 0.9397 | 1101.1 ± 1.4 | 292.37 ± 25
303.15 K, x1 = 1 | 1114.3 ± 1.4 | 369.14 ± 31
308.15 K, x1 = 0.0806 | 845.3 ± 1.2 | 6.7 ± 0.54
308.15 K, x1 = 0.1591 | 874.1 ± 1.2 | 8.47 ± 0.68
308.15 K, x1 = 0.2392 | 902.1 ± 1.2 | 10.57 ± 0.85
308.15 K, x1 = 0.3493 | 938.6 ± 1.2 | 14.52 ± 1.2
308.15 K, x1 = 0.4396 | 966.7 ± 1.2 | 19.63 ± 1.6
308.15 K, x1 = 0.5621 | 1002.5 ± 1.2 | 32.58 ± 2.6
308.15 K, x1 = 0.649 | 1026.4 ± 1.2 | 47.1 ± 3.8
308.15 K, x1 = 0.7407 | 1050.3 ± 1.3 | 73.28 ± 6
308.15 K, x1 = 0.8495 | 1077 ± 1.3 | 127.64 ± 10
308.15 K, x1 = 0.9397 | 1097.8 ± 1.4 | 197.38 ± 16
308.15 K, x1 = 1 | 1111.1 ± 1.4 | 257.59 ± 21
313.15 K, x1 = 0.0806 | 841.7 ± 1.2 | 5.41 ± 0.43
313.15 K, x1 = 0.1591 | 870.4 ± 1.2 | 6.35 ± 0.51
313.15 K, x1 = 0.2392 | 898.4 ± 1.2 | 7.59 ± 0.61
313.15 K, x1 = 0.3493 | 934.8 ± 1.2 | 10 ± 0.8
313.15 K, x1 = 0.4396 | 963 ± 1.2 | 12.88 ± 1
313.15 K, x1 = 0.5621 | 998.8 ± 1.2 | 19.77 ± 1.6
313.15 K, x1 = 0.649 | 1022.7 ± 1.2 | 28.31 ± 2.3
313.15 K, x1 = 0.7407 | 1046.7 ± 1.2 | 44.73 ± 3.6
313.15 K, x1 = 0.8495 | 1073.5 ± 1.3 | 81.32 ± 6.6
313.15 K, x1 = 0.9397 | 1094.4 ± 1.4 | 135.25 ± 11
313.15 K, x1 = 1 | 1107.8 ± 1.4 | 185.67 ± 15
318.15 K, x1 = 0.0806 | 838 ± 1.2 | 4.25 ± 0.34
318.15 K, x1 = 0.1591 | 866.7 ± 1.2 | 4.67 ± 0.37
318.15 K, x1 = 0.2392 | 894.7 ± 1.2 | 5.41 ± 0.43
318.15 K, x1 = 0.3493 | 931.2 ± 1.2 | 7.05 ± 0.57
318.15 K, x1 = 0.4396 | 959.3 ± 1.2 | 8.91 ± 0.72
318.15 K, x1 = 0.5621 | 995.2 ± 1.2 | 13.87 ± 1.1
318.15 K, x1 = 0.649 | 1019.2 ± 1.2 | 19.95 ± 1.6
318.15 K, x1 = 0.7407 | 1043.2 ± 1.2 | 31.92 ± 2.6
318.15 K, x1 = 0.8495 | 1070.1 ± 1.3 | 56.98 ± 4.6
318.15 K, x1 = 0.9397 | 1091.1 ± 1.4 | 99.97 ± 8.2
318.15 K, x1 = 1 | 1104.7 ± 1.4 | 140.18 ± 11
323.15 K, x1 = 0.0806 | 834.4 ± 1.2 | 3.56 ± 0.29
323.15 K, x1 = 0.1591 | 863 ± 1.2 | 3.84 ± 0.31
323.15 K, x1 = 0.2392 | 891 ± 1.2 | 4.28 ± 0.34
323.15 K, x1 = 0.3493 | 927.5 ± 1.2 | 5.25 ± 0.42
323.15 K, x1 = 0.4396 | 955.7 ± 1.2 | 6.46 ± 0.52
323.15 K, x1 = 0.5621 | 991.6 ± 1.2 | 9.46 ± 0.76
323.15 K, x1 = 0.649 | 1015.7 ± 1.2 | 13.58 ± 1.1
323.15 K, x1 = 0.7407 | 1039.8 ± 1.2 | 22.08 ± 1.8
323.15 K, x1 = 0.8495 | 1066.8 ± 1.3 | 42.16 ± 3.4
323.15 K, x1 = 0.9397 | 1087.9 ± 1.4 | 76.46 ± 6.2
323.15 K, x1 = 1 | 1101.6 ± 1.4 | 110.94 ± 9
